In the NIST ThermoML archive (doi:10.1016/j.fluid.2007.05.013):
± gives the expanded uncertainty stated by the source.

Settings: Liquid; for mass density: 298.15 K, 101.33 kPa

| SMILES | mass density [kg/m3] | other results |
| --- | --- | --- |
| C1COCO1 [1,3-dioxolane] | 1059 ± 0.9 | vapor or sublimation pressure (348.8 K): 101.33 ± 2 kPa |
| C1COCCO1 [1,4-dioxane] | 1027.9 ± 0.7 | vapor or sublimation pressure (374.47 K): 101.33 ± 2 kPa |
| CCCCCCCl [1-chlorohexane] | 873.5 ± 1 | vapor or sublimation pressure (408.07 K): 101.33 ± 2 kPa |

More lines, main results first:

| mass density [kg/m3] | SMILES | other results |
| --- | --- | --- |
| 882 ± 0.5 | C1CCOC1 [tetrahydrofuran] | vapor or sublimation pressure (339.12 K): 101.33 ± 2 kPa |
| 878.8 ± 1 | C1CCOCC1 [tetrahydropyran] | vapor or sublimation pressure (361.23 K): 101.33 ± 2 kPa |
